Experimental data taken from PMC7413254 (Nature Communications, 2020).
Where two headings read alike, the source gives them in different places.

Columns and labels:
non-expressing oocytes [1] = test: cells; format: cell-based, Xenopus laevis; conditions: Xenopus laevis, total [3H]CQ transport; for inhibition at 500 µM: [test solute] = 0.5 mM; for inhibition at 1000 µM: [test solute] = 1 mM; for inhibition at 2000 µM: [test solute] = 2 mM
How it was run: (§1)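 Transport runs from the acidic bath into the cytosol, analogous to PfCRT-mediated efflux out of the vacuole. Non-expressing oocytes act as background.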

PfCRT^3D7 [2] = biological target: T1, PfCRT^3D7 (Plasmodium falciparum, UniProt Q8IBZ9); test: cell-based; format: cell-based; conditions: total [3H]CQ transport; for inhibition at 500 µM: [test solute] = 0.5 mM; for inhibition at 1000 µM: [test solute] = 1 mM; for inhibition at 2000 µM: [test solute] = 2 mM
T1 sequence (Q8IBZ9 59-398): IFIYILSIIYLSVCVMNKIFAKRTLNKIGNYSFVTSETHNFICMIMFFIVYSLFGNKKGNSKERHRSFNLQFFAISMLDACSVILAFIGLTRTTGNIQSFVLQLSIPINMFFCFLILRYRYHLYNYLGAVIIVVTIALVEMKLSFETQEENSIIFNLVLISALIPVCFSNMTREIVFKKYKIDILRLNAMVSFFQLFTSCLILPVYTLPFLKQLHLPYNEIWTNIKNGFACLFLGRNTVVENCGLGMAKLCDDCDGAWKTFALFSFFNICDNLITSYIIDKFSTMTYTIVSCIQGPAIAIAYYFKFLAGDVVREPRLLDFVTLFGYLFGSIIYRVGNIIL
How it was run: as §1

PfCRT^Dd2 [3] = biological target: T2, PfCRT^Dd2 (Plasmodium falciparum, UniProt Q9N623, A220S/I356T/K76T/M74I/N326S/N75E/Q271E/R371I); test: [3H]CQ uptake into Xenopus oocytes, cis-inhibition by unlabelled solute; format: cell-based
T2 sequence (Q9N623 whole entry A220S/I356T/K76T/M74I/N326S/N75E/Q271E/R371I): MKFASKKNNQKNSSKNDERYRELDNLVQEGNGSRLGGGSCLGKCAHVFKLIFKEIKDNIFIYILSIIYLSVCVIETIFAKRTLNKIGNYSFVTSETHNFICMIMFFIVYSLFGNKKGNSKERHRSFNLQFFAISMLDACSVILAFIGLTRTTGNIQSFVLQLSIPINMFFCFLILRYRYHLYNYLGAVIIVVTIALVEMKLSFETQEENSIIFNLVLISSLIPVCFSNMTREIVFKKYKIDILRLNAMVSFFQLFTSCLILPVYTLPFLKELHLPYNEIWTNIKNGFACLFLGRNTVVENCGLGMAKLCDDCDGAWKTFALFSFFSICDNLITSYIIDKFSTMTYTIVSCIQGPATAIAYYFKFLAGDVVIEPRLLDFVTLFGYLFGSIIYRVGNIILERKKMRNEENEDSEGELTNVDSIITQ
How it was run: as §1

PfCRT^Ecu1110 [4] = biological target: T3, PfCRT^Ecu1110 (Plasmodium falciparum, UniProt Q9N623, A220S/I356L/K76T/N326D); test: as above; format: cell-based
T3 sequence (Q9N623 whole entry A220S/I356L/K76T/N326D): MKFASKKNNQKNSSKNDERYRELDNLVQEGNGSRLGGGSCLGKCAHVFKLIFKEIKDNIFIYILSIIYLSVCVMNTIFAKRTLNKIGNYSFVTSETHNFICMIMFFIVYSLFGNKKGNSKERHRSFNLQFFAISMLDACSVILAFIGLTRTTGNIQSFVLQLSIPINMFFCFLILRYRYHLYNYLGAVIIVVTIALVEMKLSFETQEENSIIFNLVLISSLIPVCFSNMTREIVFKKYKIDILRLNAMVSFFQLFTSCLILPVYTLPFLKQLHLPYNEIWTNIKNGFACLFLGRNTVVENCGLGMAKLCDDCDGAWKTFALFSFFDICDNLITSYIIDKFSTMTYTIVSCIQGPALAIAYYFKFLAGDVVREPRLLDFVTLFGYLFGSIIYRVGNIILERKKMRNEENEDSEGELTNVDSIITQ
How it was run: as §1

non-expressing oocytes [5] = format: cell-based, Xenopus laevis; conditions: total [3H]CQ transport; for Uptake of [3H]CQ (% non-expressing oocyte control), trans-stimulation: non-expressing oocytes, normalised to the oocyte type control; for Uptake of [3H]CQ (% PfCRTDd2 control), trans-stimulation, non-expressing oocytes: mean ± SEM, SEM
How it was run: (§2)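 Oocytes (ten per treatment, ≥4 independent frogs/days) were preloaded by injecting VF-6 in 25 nL ND96 at pH 5.0, 5.5, 6.0 or 7.0, or Na^+-free choline buffer, then uptake run 1.5 h, 27.5 °C, ND96 pH 5.5 by default. Internal concentrations assumed ~400 nL oocyte volume.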

PfCRT^3D7 [6] = biological target: T1, PfCRT^3D7; test: cell-based; format: cell-based
How it was run: as §2

PfCRT^Dd2 [7] = biological target: T2, PfCRT^Dd2; test: cell-based; format: cell-based; conditions: […]; for activity at 45000 µM: [test solute]i = 45 mM (30 mM for some solutes due to solubility)
How it was run: as §2

PfCRT^Ecu1110 [8] = biological target: T3, PfCRT^Ecu1110; test: cell-based; format: cell-based; conditions: […]
How it was run: as §2

PfNT1 = biological target: T4, PfNT1 (Plasmodium falciparum, UniProt Q8IDM6); test: cell-based; format: cell-based; conditions: for activity at 5000 µM: total [3H]CQ transport
T4 construct: expressed in transfected cells; host or cells: Xenopus laevis oocytes (stage V-VI), cRNA-injected
T4 sequence (Q8IDM6 whole entry): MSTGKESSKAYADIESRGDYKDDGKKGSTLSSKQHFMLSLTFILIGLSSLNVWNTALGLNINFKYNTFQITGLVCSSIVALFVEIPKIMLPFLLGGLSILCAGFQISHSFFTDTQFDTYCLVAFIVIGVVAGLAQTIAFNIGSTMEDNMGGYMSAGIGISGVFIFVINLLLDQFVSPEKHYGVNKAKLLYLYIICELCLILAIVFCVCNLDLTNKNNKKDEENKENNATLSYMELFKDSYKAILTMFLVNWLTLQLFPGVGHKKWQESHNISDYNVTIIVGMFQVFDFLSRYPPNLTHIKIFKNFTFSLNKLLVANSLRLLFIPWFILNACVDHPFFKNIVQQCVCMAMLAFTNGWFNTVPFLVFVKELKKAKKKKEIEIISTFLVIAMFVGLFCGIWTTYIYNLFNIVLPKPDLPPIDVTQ
How it was run: as §2

PfCRT [9] = test: Influx of VF-6 via PfCRT into the oocyte, solutes tested as potential co-substrates; format: cell-based, Plasmodium falciparum; parameters: key: X: Compounds that have been tested as potential co-substrates but are not required for influx of VF-6 via PfCRT into the oocyte; conditions: X marks the solute
PfCRT [10] = test: Potential co-substrates tested for influx of VF-6 via PfCRT into the oocyte; format: cell-based, Plasmodium falciparum; parameters: key: X: Compounds that have been tested as potential co-substrates but are not required for influx of VF-6 via PfCRT into the oocyte
[11] = Oocyte, mean ± SEM, SEM, read-out: Uptake of [3H]CQ (% PfCRTDd2 control), cis-inhibition, non-expressing oocytes
[12] = non-expressing oocytes, normalised to the oocyte type control, read-out: Uptake of [3H]CQ (% non-expressing oocyte control), cis-inhibition
[13] = PfCRT3D7 oocytes, normalised to the oocyte type control, read-out: Uptake of [3H]CQ (% PfCRT3D7 control), cis-inhibition
[14] = mean ± SEM, SEM, read-out: Uptake of [3H]CQ (% PfCRTDd2 control), cis-inhibition, PfCRT3D7
[15] = read-out: PfCRT-mediated [3H]CQ transport, cis-inhibition (% PfCRTDd2 control)
[16] = read-out: Uptake of [3H]CQ (% PfCRTDd2 control), cis-inhibition, PfCRTDd2, SEM
[17] = read-out: PfCRT-mediated [3H]CQ transport, cis-inhibition (% PfCRTEcu1110 control)
[18] = read-out: Uptake of [3H]CQ (% PfCRTDd2 control), cis-inhibition, PfCRTEcu1110, SEM
[19] = read-out: Uptake of [3H]CQ (% PfCRTEcu1110 control), cis-inhibition
[20] = read-out: [3H]CQ transport (% PfCRTEcu1110 control), cis-inhibition, PfCRTEcu1110, SEM

## C[C@@H](O)[C@H](N)C(=O)O [L-threonine]
non-expressing oocytes [1]; [11]
  inhibition at 500 µM: 2.2 ± 0.04%
  inhibition at 1000 µM: 3.8 ± 0.08%
  inhibition at 2000 µM: 2.8 ± 0.02%
non-expressing oocytes [1]; [12]
  inhibition at 500 µM: 95 ± 5.4%
  inhibition at 1000 µM: 98 ± 3.6%
  inhibition at 2000 µM: 100 ± 3.6%
PfCRT^3D7 [2]; [13]
  inhibition at 500 µM: 100 ± 4.7%
  inhibition at 1000 µM: 100 ± 5.3%
  inhibition at 2000 µM: 99 ± 5.3%
PfCRT^3D7 [2]; [14]
  inhibition at 500 µM: 2.9 ± 0.03%
  inhibition at 1000 µM: 2.8 ± 0.07%
  inhibition at 2000 µM: 3.3 ± 0.03%
PfCRT^Dd2 [3]; [15]
  inhibition at 500 µM: 95 ± 3.6%
  inhibition at 2000 µM: 92 ± 5.6%
PfCRT^Dd2 [3]; [16]
  inhibition at 500 µM: 97 ± 2.5%
  inhibition at 1000 µM: 96 ± 3.6%
  inhibition at 2000 µM: 94 ± 3.2%
PfCRT^Ecu1110 [4]; [17]
  inhibition at 500 µM: 94 ± 1.1%
  inhibition at 1000 µM: 95 ± 1.3%
  inhibition at 2000 µM: 94 ± 3.7%
PfCRT^Ecu1110 [4]; [18]
  inhibition at 500 µM: 31 ± 1.1%
  inhibition at 1000 µM: 32 ± 1.9%
  inhibition at 2000 µM: 31 ± 1.3%
PfCRT^Ecu1110 [4]; [19]
  inhibition at 500 µM: 96 ± 3.1%
  inhibition at 1000 µM: 98 ± 2.4%
  inhibition at 2000 µM: 96 ± 2.2%
PfCRT^Ecu1110 [4]; [20]
  inhibition at 500 µM: 28 ± 0.6%
  inhibition at 1000 µM: 29 ± 0.8%
  inhibition at 2000 µM: 28 ± 1.5%
non-expressing oocytes [5]; [test solute]i = 5 mM
  Uptake of [3H]CQ (% non-expressing oocyte control), trans-stimulation: 101 ± 3.2 % non-expressing oocyte control
non-expressing oocytes [5]; [test solute]i = 45 mM (30 mM for some solutes due to solubility)
  Uptake of [3H]CQ (% non-expressing oocyte control), trans-stimulation: 99 ± 2.4 % non-expressing oocyte control
non-expressing oocytes [5]; [test solute]i = 5 mM (intracellular)
  Uptake of [3H]CQ (% PfCRTDd2 control), trans-stimulation, non-expressing oocytes: 2.4 ± 0.08 % PfCRTDd2 control
non-expressing oocytes [5]; [test solute]i = 45 mM (intracellular; 30 mM for some solutes due to solubility)
  Uptake of [3H]CQ (% PfCRTDd2 control), trans-stimulation, non-expressing oocytes: 2.8 ± 0.02 % PfCRTDd2 control
PfCRT^3D7 [6]; PfCRT3D7 oocytes, [test solute]i = 5 mM, total [3H]CQ transport, normalised to the oocyte type control, read-out: Uptake of [3H]CQ (% PfCRT3D7 control), trans-stimulation
  activity at 5000 µM: 99 ± 4.2%
PfCRT^3D7 [6]; SEM
  [3H]CQ transport (% PfCRT3D7 control), trans-stimulation, PfCRT3D7: 0.3 ± 0.01 % PfCRT3D7 control
PfCRT^3D7 [6]; [test solute]i = 5 mM (intracellular), PfCRT3D7 oocytes, normalised to oocyte type control, read-out: PfCRT-mediated [3H]CQ transport, trans-stimulation (% PfCRT3D7 control)
  activity at 5000 µM: 97 ± 2.9%
PfCRT^3D7 [6]; SEM, read-out: Uptake of [3H]CQ (% PfCRTDd2 control), trans-stimulation, PfCRT3D7
  activity at 45000 µM: 3.3 ± 0.02%
PfCRT^3D7 [6]; read-out: PfCRT-mediated [3H]CQ transport, trans-stimulation (% PfCRT3D7 control)
  activity at 45000 µM: 96 ± 3.1%
PfCRT^3D7 [6]; read-out: Uptake of [3H]CQ (% PfCRT3D7 control), trans-stimulation
  activity at 45000 µM: 98 ± 2.8%
PfCRT^3D7 [6]; total [3H]CQ transport, [test solute]i = 5 mM (intracellular), mean ± SEM, SEM, read-out: Uptake of [3H]CQ (% PfCRTDd2 control), trans-stimulation, PfCRT3D7
  activity at 5000 µM: 3.3 ± 0.1%
PfCRT^Dd2 [7]; pH 5.5, read-out: PfCRT-mediated [3H]CQ transport, trans-stimulation (% PfCRTDd2 control), [test solute]i = 5 mM (intracellular), PfCRTDd2 oocytes, normalised to oocyte type control
  activity at 5000 µM: 96 ± 3.2%
PfCRT^Dd2 [7]; pH 5.5, read-out: Uptake of [3H]CQ (% PfCRTDd2 control), trans-stimulation, PfCRTDd2, total [3H]CQ transport, [test solute]i = 5 mM (intracellular), mean ± SEM, SEM
  activity at 5000 µM: 98 ± 3.2%
PfCRT^Dd2 [7]; pH 5.5, read-out: Uptake of [3H]CQ (% PfCRTDd2 control), trans-stimulation, PfCRTDd2 oocytes, [test solute]i = 5 mM, total [3H]CQ transport, normalised to the oocyte type control
  activity at 5000 µM: 98 ± 3.2%
PfCRT^Dd2 [7]; pH 5.5, read-out: Uptake of [3H]CQ (% PfCRTDd2 control), trans-stimulation, PfCRTDd2 oocytes, total [3H]CQ transport, normalised to the oocyte type control
  activity at 45000 µM: 99 ± 3.2%
PfCRT^Dd2 [7]; pH 5.5, read-out: [3H]CQ transport (% PfCRTDd2 control), trans-stimulation, PfCRTDd2, trans-stimulation, [test solute]i = 5 mM (injected), PfCRT-mediated component (background subtracted), mean ± SEM, SEM
  activity at 5000 µM: 96 ± 3.2%
PfCRT^Dd2 [7]; pH 5.5, read-out: [3H]CQ transport (% PfCRTDd2 control), trans-stimulation, PfCRTDd2, trans-stimulation, PfCRT-mediated component (background subtracted), mean ± SEM, SEM
  activity at 45000 µM: 97 ± 3.9%
PfCRT^Ecu1110 [8]; pH 5.5, read-out: PfCRT-mediated [3H]CQ transport, trans-stimulation (% PfCRTEcu1110 control), [test solute]i = 5 mM (intracellular), PfCRTEcu1110 oocytes, normalised to oocyte type control
  activity at 5000 µM: 99 ± 3.4%
PfCRT^Ecu1110 [8]; pH 5.5, read-out: Uptake of [3H]CQ (% PfCRTEcu1110 control), trans-stimulation, PfCRTEcu1110 oocytes, [test solute]i = 5 mM, total [3H]CQ transport, normalised to the oocyte type control
  activity at 5000 µM: 101 ± 2.5%
PfCRT^Ecu1110 [8]; pH 5.5, read-out: Uptake of [3H]CQ (% PfCRTEcu1110 control), trans-stimulation, PfCRTEcu1110 oocytes, [test solute]i = 45 mM (30 mM for some solutes due to solubility), total [3H]CQ transport, normalised to the oocyte type control
  activity at 45000 µM: 99 ± 2%
PfCRT^Ecu1110 [8]; read-out: Uptake of [3H]CQ (% PfCRTDd2 control), trans-stimulation, PfCRTEcu1110, total [3H]CQ transport, [test solute]i = 5 mM (intracellular), mean ± SEM, SEM
  activity at 5000 µM: 36 ± 1.9%
PfCRT^Ecu1110 [8]; read-out: Uptake of [3H]CQ (% PfCRTDd2 control), trans-stimulation, PfCRTEcu1110, total [3H]CQ transport, [test solute]i = 45 mM (intracellular; 30 mM for some solutes due to solubility), mean ± SEM, SEM
  activity at 45000 µM: 35 ± 1.3%
PfNT1; PfNT1 oocytes, [test solute]i = 5 mM, normalised to the oocyte type control, read-out: Uptake of [3H]CQ (% PfNT1 control), trans-stimulation
  activity at 5000 µM: 99 ± 3.5%
PfNT1; SEM, read-out: Uptake of [3H]CQ (% PfCRTDd2 control), trans-stimulation, PfNT1
  activity at 45000 µM: 2.6 ± 0.08%
PfNT1; read-out: Uptake of [3H]CQ (% PfNT1 control), trans-stimulation
  activity at 45000 µM: 100 ± 2.6%
PfNT1; [test solute]i = 5 mM (intracellular), mean ± SEM, SEM, read-out: Uptake of [3H]CQ (% PfCRTDd2 control), trans-stimulation, PfNT1
  activity at 5000 µM: 2.8 ± 0.05%
PfCRT [9]
  Compounds that have been tested as potential co-substrates but are not required for influx of VF-6 via PfCRT into the oocyte: X
PfCRT [10]
  Tested as potential co-substrate but not required for influx of VF-6 via PfCRT into the oocyte: X
